Data on 1 compound can be found in patent US20250228801A1, “USE OF Galectin-1 INHIBITOR IN PREPARATION OF DRUG FOR TREATING PULMONARY FIBROSIS” (Institute of Basic Medical Sciences, CAMS, priority 2024, published 2025).

Molecules are shown by their SMILES.

One test has as its system Galectin-1. Description: Galectin-1 levels in silicosis mice (qPCR of lung tissue, ELISA of BALF). It is filed as in vivo, mouse. From the text:
(§1) Male C57BL/6J mice (aged 8 weeks and weighing 25-30 g) were selected and housed in an SPF grade laboratory animal room, and the model of silicosis was constructed by one-time intratracheal instillation of silica (Si); the mice were divided into four groups (n=9): • 1) PBS+vehicle group: tracheal infusion of PBS, intraperitoneal injection of vehicle (10% DMSO+90% corn oil) 2 weeks later, once every other day for 3 weeks; • 2) PBS+OTX008 group: PBS was given by tracheal infusion, and 2 weeks later, OTX008 (5 mg/kg) was given by intraperitoneal injection, once every other day for 3 weeks; • 3) Si+vehicle group: Silica suspension (300 mg/mL, 40 μL) was given tracheal infusion, and vehicle (10% DMSO+90% corn oil) was given intraperitoneal injection 2 weeks later, once every other day for 3 weeks; and • 4) Si+OTX008 group: Silica suspension (300 mg/mL, 40 μL) was given tracheal infusion, and OTX008 (5 mg/kg) was given intraperitoneal injection 2 weeks later, once every other day for 3 weeks.
(§2) All mice were sacrificed after the administration, and the corresponding samples were collected for detection.
(§3) Concentrations of inflammatory factors IL-1β and IL-6 as well as Galectin-1 in mouse BALF were detected by using ELISA kits.
(§4) Lung tissue RNA of all mice was extracted; cDNA was obtained by using a reverse transcription kit (KR103, Tiangen Biotechnology, Beijing, China); qPCR was conducted by using a SYBR Green I Q-PCR Kit (TransGen Biotech, Beijing China); data collection and analysis were conducted by Bio-Rad IQ5 system.

The test system of test [1] is silicosis mice. Description: Pulmonary function test in silicosis mouse model. It is filed as in vivo. The following applies: OTX008 5 mg/kg i.p.
Excerpt: as §1
Anesthetized mice were fixed on an experimental table, and mouse lung function was detected by a pulmonary function testing system (DSI Buxco, USA). Before experiment, the mouse was anesthetized by intraperitoneal injection of 0.4 mL/100 g 2% pentobarbital, tracheotomy was performed, a trachea cannula was inserted, and a ventilator was connected. Next, FRC, PV, FV, and RC were automatically tested by a PET system. Indicators closely related to lung function changes in silicosis for statistical analysis, including lung volume indicators such as IC, and pulmonary ventilation function tests such as RI, Cdyn, and Cchord.

The test system of test [2] is inflammatory factors IL-1β and IL-6. Kind of test: Inflammatory factors in silicosis mice (qPCR of lung tissue, ELISA of BALF). The note with it: OTX008 5 mg/kg i.p. It is filed as in vivo, mouse.
Excerpt: as §1, §2, §3, §4

The test system of test [3] is fibrosis factors Fn-1 and Col-I, hydroxyproline. Kind of test: Fibrosis factors (qPCR) and HYP content in lung tissue of silicosis mice. The following applies: OTX008 5 mg/kg i.p. It counts as in vivo, mouse.
Excerpt: as §1, §2, §4
30 mg of mouse lung tissue was detected using an HYP kit (NBP2-59747, Novus Biologicals, Littleton, CO, USA).

The subject of test [4] is silicosis mice. Description: Pathological staining (HE, Masson) of lung tissue of silicosis mice. The note with it: OTX008 5 mg/kg i.p. It counts as in vivo, mouse.
Excerpt: as §1
The left lung was fixed in 4% paraformaldehyde for 72 h, dehydrated, paraffin-embedded, sectioned (to 5 μm), and subjected to HE staining and Masson staining, respectively. The HE staining was conducted to calculate the inflammation score based on Szapiel's score. The scoring method included no inflammation (grade 0), mild (grade 1), moderate (grade 2), and severe (grade 3); Masson staining was conducted to evaluate the degree of fibrosis based on the King score. Specifically, different silicosis nodules were evaluated for fibrosis degree according to King's method, with levels ranging from 0 to 5. Each silicosis nodule was assigned a corresponding fibrosis damage score, which was calculated as the fibrosis level score (0-5) multiplied by its percentage of the total area of the tissue section. The sections were scanned, photographed and counted by a 3D HISTECH digital slide scanner.

Turning to `CN(C)CCNC(=O)COc1c2cccc1Cc1cccc(c1OCC(=O)NCCN(C)C)Cc1cccc(c1OCC(=O)NCCN(C)C)Cc1cccc(c1OCC(=O)NCCN(C)C)C2` [OTX008], the “Galectin-1 translation level in alveolar lavage fluid” value in the test on Galectin-1 (OTX008 5 mg/kg i.p., ELISA) is given as “decreased”. In addition, the “Lgals1 transcription level in lung tissue” value in the test with Galectin-1 (OTX008 5 mg/kg i.p., qPCR) is reported as “decreased”. Also, in the test with Galectin-1 (OTX008 5 mg/kg intraperitoneal, once every other day for 3 weeks), the “levels of Galectin-1 (transcription and translation)” value is “effectively inhibited”. Besides, in the test on silicosis mice [1] (FIG. 3A), the “lung function: inspiratory capacity (IC)” value was “improved significantly”. Also, the “lung function: inspiratory resistance (RI)” value in the test with silicosis mice [1] (FIG. 3B) is on record as “improved significantly”. Besides, in the test on silicosis mice [1] (FIG. 3C), the “lung function: dynamic compliance (Cdyn)” value is reported as “improved significantly”. Besides, in the test with silicosis mice [1] (FIG. 3D), the “lung function: quasi-static compliance (Cchord)” value was “improved significantly”. Moreover, the “concentration of IL-1β in alveolar lavage fluid” value in test [2] (ELISA, FIG. 4C) was “decreased”. In addition, the “concentration of IL-6 in alveolar lavage fluid” value in test [2] (ELISA, FIG. 4D) is “decreased”. In test [2] (qPCR, FIG. 4A), the “transcription level of Il-1β in lung tissue” value is given as “decreased”. In addition, the “transcription level of Il-6 in lung tissue” value in test [2] (qPCR, FIG. 4B) is on record as “decreased”. Besides, the “collagen-specific amino acid HYP in lung tissue” value in test [3] (HYP kit, FIG. 6C) is on record as “decreased”. For the same compound, the “transcription level of Col-I in lung tissue” value in test [3] (qPCR, FIG. 6A) was “decreased”. Besides, the “transcription level of Fn-1 in lung tissue” value in test [3] (qPCR, FIG. 6B) is “decreased”. Moreover, the “progression of pulmonary fibrosis” value in the test with silicosis mice [4] is listed as “effectively alleviate”. In addition, the “fibrosis lesions (Masson staining)” value in the test with silicosis mice [4] (FIGS. 7A-7D) is listed as “reduced”. In addition, the “inflammatory infiltration in the lungs” value in the test on silicosis mice [4] (HE staining) is “reduced”. In addition, the “degree of the disease (lesions)” value in the test with silicosis mice [4] (Masson staining) was “alleviated”.
